Measurements from PubChem BioAssay (NCI).
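Interpolation was linear, between the two tested concentrations surrounding the appropriate level; five concentrations were tested over 48 hours in 96-well plates. GI50 is the concentration that inhibits growth by half. TGI marks complete inhibition of growth.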

Columns and labels:
Experiment in all cases: NCI anticancer screen, dose series, 48 h; in the data active means GI50 below about 0.43 µM; inactive means the rest
SK-MEL-5 melanoma = test system: SK-MEL-5 melanoma
NCI/ADR-RES ovarian = test system: NCI/ADR-RES ovarian
ACHN renal = test system: ACHN renal
NCI-H460 lung = test system: NCI-H460 lung
RPMI-8226 leukemia = test system: RPMI-8226 leukemia
HOP-92 NSCLC = test system: HOP-92 NSCLC
U251 CNS = test system: U251 CNS
EKVX NSCLC = test system: EKVX NSCLC
NCI-H522 lung = test system: NCI-H522 lung
SF-539 CNS = test system: SF-539 CNS
M14 melanoma = test system: M14 melanoma
SF-295 CNS = test system: SF-295 CNS
A549 NSCLC = test system: A549 NSCLC
T-47D breast = test system: T-47D breast
OVCAR-4 ovarian = test system: OVCAR-4 ovarian
A498 renal = test system: A498 renal
LOX IMVI melanoma = test system: LOX IMVI melanoma
MOLT-4 leukemia = test system: MOLT-4 leukemia
CAKI-1 renal = test system: CAKI-1 renal
SNB-75 CNS = test system: SNB-75 CNS
MCF7 breast = test system: MCF7 breast
MDA-MB-231 breast = test system: MDA-MB-231 breast
HT29 colon = test system: HT29 colon
IGROV1 ovarian = test system: IGROV1 ovarian
TK-10 renal = test system: TK-10 renal
OVCAR-5 ovarian = test system: OVCAR-5 ovarian
UACC-62 melanoma = test system: UACC-62 melanoma
MDA-MB-435 = test system: MDA-MB-435
HS 578T breast = test system: HS 578T breast
SK-OV-3 ovarian = test system: SK-OV-3 ovarian
OVCAR-8 ovarian = test system: OVCAR-8 ovarian
KM12 colon = test system: KM12 colon
PC-3 prostate = test system: PC-3 prostate
RXF 393 renal = test system: RXF 393 renal
HCC-2998 colon = test system: HCC-2998 colon
HL-60(TB) leukemia = test system: HL-60(TB) leukemia
UACC-257 melanoma = test system: UACC-257 melanoma
786-0 renal = test system: 786-0 renal
NCI-H226 lung = test system: NCI-H226 lung
HCT-15 colon = test system: HCT-15 colon
SF-268 CNS = test system: SF-268 CNS
SK-MEL-2 melanoma = test system: SK-MEL-2 melanoma
UO-31 renal = test system: UO-31 renal
SW-620 colon = test system: SW-620 colon
SR leukemia = test system: SR leukemia
SN12C renal = test system: SN12C renal
CCRF-CEM leukemia = test system: CCRF-CEM leukemia
SK-MEL-28 melanoma = test system: SK-MEL-28 melanoma
HCT-116 colon = test system: HCT-116 colon
MALME-3M melanoma = test system: MALME-3M melanoma
DU-145 prostate = test system: DU-145 prostate
K-562 leukemia = test system: K-562 leukemia
COLO 205 colon = test system: COLO 205 colon
SNB-19 CNS = test system: SNB-19 CNS
NCI-H23 lung = test system: NCI-H23 lung
BT-549 breast = test system: BT-549 breast
HOP-62 NSCLC = test system: HOP-62 NSCLC
OVCAR-3 ovarian = test system: OVCAR-3 ovarian

COc1cc(OC)c(/C=C/S(=O)(=O)Cc2ccc(OC)c(NC(=O)CCC(=O)NO)c2)c(OC)c1
72.4 nM: TGI (BT-549 breast)
> 37.2 µM: TGI (SK-MEL-2 melanoma)
79.4 nM: TGI (A498 renal)
active: GI50 (SK-MEL-5 melanoma) 29.9 nM | GI50 (NCI/ADR-RES ovarian) < 0.0158 µM | GI50 (ACHN renal) 33.2 nM | GI50 (NCI-H460 lung) 34 nM | GI50 (RPMI-8226 leukemia) 45.2 nM | GI50 (HOP-92 NSCLC) 251 nM | GI50 (U251 CNS) 38.7 nM | GI50 (EKVX NSCLC) 57.3 nM | GI50 (NCI-H522 lung) < 12.6 nM | GI50 (SF-539 CNS) 26.1 nM | GI50 (M14 melanoma) 18.8 nM | GI50 (SF-295 CNS) 14.4 nM | GI50 (A549 NSCLC) 39.7 nM | GI50 (A498 renal) < 13.4 nM | GI50 (LOX IMVI melanoma) 29.6 nM | GI50 (MOLT-4 leukemia) 46.7 nM | GI50 (CAKI-1 renal) < 15.9 nM | GI50 (SNB-75 CNS) 0.0184 µM | GI50 (MCF7 breast) 25 nM | GI50 (MDA-MB-231 breast) 47.8 nM | GI50 (HT29 colon) 38.7 nM | GI50 (IGROV1 ovarian) 38.6 nM | GI50 (OVCAR-5 ovarian) 55 nM | GI50 (UACC-62 melanoma) 19.8 nM | GI50 (HS 578T breast) 23 nM | GI50 (OVCAR-8 ovarian) 41.2 nM | GI50 (KM12 colon) 30.7 nM | GI50 (PC-3 prostate) 31.1 nM | GI50 (RXF 393 renal) 21.4 nM | GI50 (HCC-2998 colon) 34.5 nM | GI50 (HL-60(TB) leukemia) 26.2 nM | GI50 (786-0 renal) 43.6 nM | GI50 (NCI-H226 lung) 99.5 nM | GI50 (HCT-15 colon) 22.5 nM | GI50 (SF-268 CNS) 0.102 µM | GI50 (UO-31 renal) 107 nM | GI50 (SW-620 colon) 37.7 nM | GI50 (SR leukemia) 20.3 nM | GI50 (SN12C renal) 61.8 nM | GI50 (CCRF-CEM leukemia) 35.3 nM | GI50 (HCT-116 colon) 27.8 nM | GI50 (DU-145 prostate) 45.1 nM | GI50 (K-562 leukemia) < 15.4 nM | GI50 (COLO 205 colon) 32.9 nM | GI50 (SNB-19 CNS) 46.3 nM | GI50 (NCI-H23 lung) 49.9 nM | GI50 (BT-549 breast) 24.4 nM | GI50 (HOP-62 NSCLC) 67.5 nM
0.432 µM: TGI (SF-539 CNS)
> 100000 nM: TGI (RXF 393 renal)
inactive: GI50 (T-47D breast) 30.6 µM | GI50 (TK-10 renal) > 100000 nM | GI50 (SK-OV-3 ovarian) 1170 nM | GI50 (UACC-257 melanoma) > 100000 nM | GI50 (SK-MEL-28 melanoma) > 84500 nM | GI50 (MALME-3M melanoma) > 100000 nM
3.68 µM: TGI (SNB-75 CNS)
256 nM: TGI (SK-MEL-5 melanoma)
31.5 nM: TGI (MDA-MB-435)
88 nM: TGI (HL-60(TB) leukemia)
> 100 µM: TGI (NCI/ADR-RES ovarian) | TGI (ACHN renal) | TGI (NCI-H460 lung) | TGI (RPMI-8226 leukemia) | TGI (HOP-92 NSCLC) | TGI (U251 CNS) | TGI (EKVX NSCLC) | TGI (M14 melanoma) | TGI (SF-295 CNS) | TGI (A549 NSCLC) | TGI (T-47D breast) | TGI (OVCAR-4 ovarian) | TGI (LOX IMVI melanoma) | TGI (MOLT-4 leukemia) | TGI (CAKI-1 renal) | TGI (MCF7 breast) | TGI (MDA-MB-231 breast) | TGI (HT29 colon) | TGI (IGROV1 ovarian) | TGI (TK-10 renal) | TGI (OVCAR-5 ovarian) | TGI (UACC-62 melanoma) | TGI (HS 578T breast) | TGI (SK-OV-3 ovarian) | TGI (OVCAR-8 ovarian) | TGI (KM12 colon) | TGI (PC-3 prostate) | TGI (HCC-2998 colon) | TGI (UACC-257 melanoma) | TGI (786-0 renal) | TGI (NCI-H226 lung) | TGI (HCT-15 colon) | TGI (SF-268 CNS) | TGI (UO-31 renal) | TGI (SW-620 colon) | TGI (SR leukemia) | TGI (SN12C renal) | TGI (CCRF-CEM leukemia) | TGI (SK-MEL-28 melanoma) | TGI (HCT-116 colon) | TGI (MALME-3M melanoma) | TGI (DU-145 prostate) | TGI (K-562 leukemia) | TGI (SNB-19 CNS) | TGI (NCI-H23 lung) | TGI (HOP-62 NSCLC)

CCCc1cc2cc(-n3nc(CC)c4c3CC(C)(C)CC4=O)cc(NC3CCC(O)CC3)c2c(=O)[nH]1 (stereo unspecified)
11.5 µM: TGI (NCI-H522 lung)
> 100 µM: TGI (NCI/ADR-RES ovarian) | TGI (ACHN renal) | TGI (NCI-H460 lung) | TGI (RPMI-8226 leukemia) | TGI (U251 CNS) | TGI (EKVX NSCLC) | TGI (M14 melanoma) | TGI (SF-295 CNS) | TGI (A549 NSCLC) | TGI (T-47D breast) | TGI (LOX IMVI melanoma) | TGI (MOLT-4 leukemia) | TGI (CAKI-1 renal) | TGI (SNB-75 CNS) | TGI (MCF7 breast) | TGI (MDA-MB-231 breast) | TGI (HT29 colon) | TGI (IGROV1 ovarian) | TGI (TK-10 renal) | TGI (OVCAR-5 ovarian) | TGI (UACC-62 melanoma) | TGI (HS 578T breast) | TGI (SK-OV-3 ovarian) | TGI (OVCAR-8 ovarian) | TGI (KM12 colon) | TGI (PC-3 prostate) | TGI (HCC-2998 colon) | TGI (UACC-257 melanoma) | TGI (OVCAR-3 ovarian) | TGI (786-0 renal) | TGI (NCI-H226 lung) | TGI (HCT-15 colon) | TGI (SF-268 CNS) | TGI (SK-MEL-2 melanoma) | TGI (UO-31 renal) | TGI (SW-620 colon) | TGI (SN12C renal) | TGI (CCRF-CEM leukemia) | TGI (SK-MEL-28 melanoma) | TGI (HCT-116 colon) | TGI (MALME-3M melanoma) | TGI (DU-145 prostate) | TGI (K-562 leukemia) | TGI (COLO 205 colon) | TGI (SNB-19 CNS) | TGI (HOP-62 NSCLC)
inactive: GI50 (SK-MEL-5 melanoma) 1940 nM | GI50 (NCI/ADR-RES ovarian) 3.88 µM | GI50 (ACHN renal) 495 nM | GI50 (NCI-H460 lung) 482 nM | GI50 (RPMI-8226 leukemia) 1580 nM | GI50 (HOP-92 NSCLC) 1710 nM | GI50 (U251 CNS) 3370 nM | GI50 (EKVX NSCLC) > 100000 nM | GI50 (NCI-H522 lung) 1010 nM | GI50 (SF-539 CNS) 1720 nM | GI50 (M14 melanoma) 572 nM | GI50 (SF-295 CNS) 759 nM | GI50 (A549 NSCLC) 1460 nM | GI50 (T-47D breast) 2.06 µM | GI50 (A498 renal) 2020 nM | GI50 (MOLT-4 leukemia) 503 nM | GI50 (CAKI-1 renal) 1130 nM | GI50 (SNB-75 CNS) 6.22 µM | GI50 (MDA-MB-231 breast) 652 nM | GI50 (IGROV1 ovarian) 831 nM | GI50 (TK-10 renal) 621 nM | GI50 (OVCAR-5 ovarian) 3510 nM | GI50 (UACC-62 melanoma) 487 nM | GI50 (MDA-MB-435) 444 nM | GI50 (HS 578T breast) 3490 nM | GI50 (OVCAR-8 ovarian) 2040 nM | GI50 (KM12 colon) 758 nM | GI50 (PC-3 prostate) 1310 nM | GI50 (HCC-2998 colon) 842 nM | GI50 (UACC-257 melanoma) 3000 nM | GI50 (OVCAR-3 ovarian) 4.43 µM | GI50 (786-0 renal) 2950 nM | GI50 (NCI-H226 lung) 2620 nM | GI50 (SF-268 CNS) 7.29 µM | GI50 (SK-MEL-2 melanoma) 2270 nM | GI50 (UO-31 renal) 568 nM | GI50 (CCRF-CEM leukemia) 1340 nM | GI50 (SK-MEL-28 melanoma) 869 nM | GI50 (MALME-3M melanoma) 839 nM | GI50 (DU-145 prostate) 530 nM | GI50 (COLO 205 colon) 464 nM | GI50 (SNB-19 CNS) 3020 nM | GI50 (BT-549 breast) 2300 nM | GI50 (HOP-62 NSCLC) 836 nM
active: GI50 (LOX IMVI melanoma) 198 nM | GI50 (MCF7 breast) 289 nM | GI50 (HT29 colon) 100 nM | GI50 (SK-OV-3 ovarian) 409 nM | GI50 (RXF 393 renal) 408 nM | GI50 (HL-60(TB) leukemia) 315 nM | GI50 (HCT-15 colon) 400 nM | GI50 (SW-620 colon) 370 nM | GI50 (SN12C renal) 365 nM | GI50 (HCT-116 colon) 193 nM | GI50 (K-562 leukemia) 185 nM | GI50 (NCI-H23 lung) 127 nM
8.6 µM: TGI (HOP-92 NSCLC)
89.3 µM: TGI (SF-539 CNS)
50.8 µM: TGI (NCI-H23 lung)
> 100000 nM: TGI (SK-MEL-5 melanoma) | TGI (A498 renal) | TGI (MDA-MB-435) | TGI (HL-60(TB) leukemia) | TGI (BT-549 breast)
2410 nM: TGI (RXF 393 renal)
